Experimental data from patent publication US9150592B2, “Heterocyclic nuclear hormone receptor modulators” (AbbVie Inc., priority 2012, dated 2015).

Target: T1, Glucocorticoid Receptor (GR) (Homo sapiens, UniProt P04150)
T1 construct: purchased Invitrogen P2893
T1 sequence (P04150 1-777): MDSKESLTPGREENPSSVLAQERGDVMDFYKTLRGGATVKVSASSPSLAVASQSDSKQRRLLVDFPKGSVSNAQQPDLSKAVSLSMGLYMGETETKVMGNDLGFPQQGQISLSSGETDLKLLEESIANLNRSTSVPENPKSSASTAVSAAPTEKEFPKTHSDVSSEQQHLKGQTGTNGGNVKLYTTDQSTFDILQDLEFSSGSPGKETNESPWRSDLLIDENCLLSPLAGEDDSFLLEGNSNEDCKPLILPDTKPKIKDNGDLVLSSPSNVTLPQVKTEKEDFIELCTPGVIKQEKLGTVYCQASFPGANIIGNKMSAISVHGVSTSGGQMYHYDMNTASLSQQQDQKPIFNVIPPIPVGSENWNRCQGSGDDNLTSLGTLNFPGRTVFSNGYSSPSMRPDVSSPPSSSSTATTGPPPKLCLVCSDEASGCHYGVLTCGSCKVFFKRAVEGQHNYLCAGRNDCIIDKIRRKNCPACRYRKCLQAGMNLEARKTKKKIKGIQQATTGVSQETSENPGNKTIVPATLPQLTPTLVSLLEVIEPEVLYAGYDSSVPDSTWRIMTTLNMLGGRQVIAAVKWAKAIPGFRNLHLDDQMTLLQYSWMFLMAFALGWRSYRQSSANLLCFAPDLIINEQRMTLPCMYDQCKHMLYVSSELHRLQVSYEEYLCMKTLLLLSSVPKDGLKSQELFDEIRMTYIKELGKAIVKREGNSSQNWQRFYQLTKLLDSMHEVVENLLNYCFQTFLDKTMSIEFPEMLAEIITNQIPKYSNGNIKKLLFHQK
Experiment: GR Fluorescence Polarization Assay (PolarScreen Glucocorticoid Receptor Competitor Assay, Red)
Conditions: IC50 class ranges, read-out: GR binding
Procedure: GR Fluorescence Polarization Assay
Fluorescence polarization assays were carried out using the PolarScreen™ Glucocorticoid Receptor Competitor Assay, Red from Invitrogen (P2893). The assay buffer was prepared according to the manufacturer's protocol and used to dilute the fluorescent glucocorticoid and GR. Compounds were prepared and serial diluted 1:4 in DMSO. Compound, fluorescent glucocorticoid and GR were added in a final volume of 20 μL and incubated overnight at 4° C. Fluorescent polarization was measured on the PerkinElmer Envision®.

Row | SMILES | IC50
1 | Cn1nc(-c2ccccn2)c2c1NCCSC2c1ccc(C(C)(C)O)cc1Cl (centres unmarked) | 1000 to 10000 nM
2 | Cn1nc(-c2ccccn2)c2c1N(CC(=O)O)CCSC2c1ccc(Cl)cc1Cl (centres unmarked) | 1000 to 10000 nM
3 | Cn1nc(-c2ccccn2)c2c1N(CC(N)=O)CCSC2c1ccc(Cl)cc1Cl (centres unmarked) | 1000 to 10000 nM
4 | Cc1ncccc1NC(=O)c1ccc(C2SCCNc3c2c(-c2ccccn2)nn3C)c(Cl)c1 (centres unmarked) | < 100 nM
5 | Cc1cccc(-c2nn(C)c3c2C(c2ccc(Cl)cc2C)SCCN3)n1 (centres unmarked) | 1000 to 10000 nM
6 | Cn1nc(-c2ccc(C(=O)O)cn2)c2c1NCCSC2c1ccc(Cl)cc1Cl (centres unmarked) | 1000 to 10000 nM
7 | Cc1ncccc1NC(=O)N1CCC(C2SCCNc3c2c(-c2ccccn2)nn3C)CC1 (centres unmarked) | > 10000 nM
8 | Cc1ncccc1C(=O)N1CCC(C2SCCNc3c2c(-c2ccccn2)nn3C)CC1 (centres unmarked) | > 10000 nM
9 | Cc1cc(Cl)ccc1C1SCCNc2c1c(-c1ccccn1)nn2C (single isomer, unassigned) | < 100 nM
10 | Cc1cc(Cl)ccc1C1SCC(C)Nc2c1c(-c1ccccn1)nn2C (single isomer, unassigned) | < 100 nM
11 | Cc1cc(C(=O)Nc2cccnc2C)ccc1C1SCC(CO)Nc2c1c(-c1ccccn1)nn2C (single isomer, unassigned) | 1000 to 10000 nM
12 | Cc1ncccc1NC(=O)c1ccc([C@H]2SC[C@H](C)Nc3c2c(-c2ccccn2)nn3C)c(C#N)c1 (single isomer, unassigned) [M.18, 3-cyano-4-(1,7-dimethyl-3-(pyridin-2-yl)-4,6,7,8-tetrahydro-1H-pyrazolo[3,4-e][1,4]thiazepin-4-yl)-N-(2-methylpyridin-3-yl)benzamide] | 1000 to 10000 nM
13 | Cc1ncccc1NC(=O)c1ccc([C@H]2SC[C@@H](C)Nc3c2c(-c2ccccn2)nn3C)c(C#N)c1 (single isomer, unassigned) [M.19, 3-cyano-4-(1,7-dimethyl-3-(pyridin-2-yl)-4,6,7,8-tetrahydro-1H-pyrazolo[3,4-e][1,4]thiazepin-4-yl)-N-(2-methylpyridin-3-yl)benzamide] | 1000 to 10000 nM
14 | Cc1cc(C#N)ccc1C1SCCNc2c1c(-c1ccccn1)nn2C (single isomer, unassigned) [M.21, 3-methyl-4-(1-methyl-3-(pyridin-2-yl)-4,6,7,8-tetrahydro-1H-pyrazolo[3,4-e][1,4]thiazepin-4-yl)benzonitrile] | < 100 nM
15 | CCn1nc(-c2ccccn2)c2c1N[C@@H](C)CS[C@@H]2c1ccc(C#CCO)cc1C (single isomer, unassigned) [M.25, 3-(4-(1-ethyl-7-methyl-3-(pyridin-2-yl)-4,6,7,8-tetrahydro-1H-pyrazolo[3,4-e][1,4]thiazepin-4-yl)-3-methylphenyl)prop-2-yn-1-ol] | 1000 to 10000 nM
16 | CCn1nc(-c2ccccn2)c2c1N[C@H](C)CS[C@@H]2c1ccc(C#CCO)cc1C (single isomer, unassigned) [M.26, 3-(4-(1-ethyl-7-methyl-3-(pyridin-2-yl)-4,6,7,8-tetrahydro-1H-pyrazolo[3,4-e][1,4]thiazepin-4-yl)-3-methylphenyl)prop-2-yn-1-ol] | 1000 to 10000 nM

Row | SMILES | IC50
17 | CCn1nc(-c2ccccn2)c2c1N[C@@H](C)CS[C@@H]2c1ccc(C#CC(C)(C)O)cc1C (single isomer, unassigned) [M.29, 4-(4-(1-ethyl-7-methyl-3-(pyridin-2-yl)-4,6,7,8-tetrahydro-1H-pyrazolo[3,4-e][1,4]thiazepin-4-yl)-3-methylphenyl)-2-methylbut-3-yn-2-ol] | 1000 to 10000 nM
18 | CCn1nc(-c2ccccn2)c2c1N[C@H](C)CS[C@@H]2c1ccc(C#CC(C)(C)O)cc1C (single isomer, unassigned) [M.30, 4-(4-(1-ethyl-7-methyl-3-(pyridin-2-yl)-4,6,7,8-tetrahydro-1H-pyrazolo[3,4-e][1,4]thiazepin-4-yl)-3-methylphenyl)-2-methylbut-3-yn-2-ol] | 1000 to 10000 nM
19 | CCn1nc(-c2ccccn2)c2c1N[C@@H](C)CS[C@@H]2c1ccc(CCCO)cc1C (single isomer, unassigned) [M.33, 3-(4-(1-ethyl-7-methyl-3-(pyridin-2-yl)-4,6,7,8-tetrahydro-1H-pyrazolo[3,4-e][1,4]thiazepin-4-yl)-3-methylphenyl)propan-1-ol] | 100 to 1000 nM
20 | CCn1nc(-c2ccccn2)c2c1N[C@H](C)CS[C@@H]2c1ccc(CCCO)cc1C (single isomer, unassigned) [M.34, 3-(4-(1-ethyl-7-methyl-3-(pyridin-2-yl)-4,6,7,8-tetrahydro-1H-pyrazolo[3,4-e][1,4]thiazepin-4-yl)-3-methylphenyl)propan-1-ol] | 100 to 1000 nM
21 | CCn1nc(-c2ccccn2)c2c1N[C@@H](C)CS[C@@H]2c1ccc(CCC(C)(C)O)cc1C (single isomer, unassigned) [M.37, 4-(4-(1-ethyl-7-methyl-3-(pyridin-2-yl)-4,6,7,8-tetrahydro-1H-pyrazolo[3,4-e][1,4]thiazepin-4-yl)-3-methylphenyl)-2-methylbutan-2-ol] | 100 to 1000 nM
22 | CCn1nc(-c2ccccn2)c2c1N[C@H](C)CS[C@@H]2c1ccc(CCC(C)(C)O)cc1C (single isomer, unassigned) [M.38, 4-(4-(1-ethyl-7-methyl-3-(pyridin-2-yl)-4,6,7,8-tetrahydro-1H-pyrazolo[3,4-e][1,4]thiazepin-4-yl)-3-methylphenyl)-2-methylbutan-2-ol] | 100 to 1000 nM
23 | Cc1cc(CCC(C)(C)O)ccc1[C@H]1SC[C@H](C)Nc2c1c(-c1ccccn1)nn2C (single isomer, unassigned) [M.41, 4-(4-(1,7-dimethyl-3-(pyridin-2-yl)-4,6,7,8-tetrahydro-1H-pyrazolo[3,4-e][1,4]thiazepin-4-yl)-3-methylphenyl)-2-methylbutan-2-ol] | 100 to 1000 nM
24 | Cc1cc(CCC(C)(C)O)ccc1[C@H]1SC[C@@H](C)Nc2c1c(-c1ccccn1)nn2C (single isomer, unassigned) [M.43, 4-(4-(1,7-dimethyl-3-(pyridin-2-yl)-4,6,7,8-tetrahydro-1H-pyrazolo[3,4-e][1,4]thiazepin-4-yl)-3-methylphenyl)-2-methylbutan-2-ol] | 1000 to 10000 nM
25 | CCn1nc(-c2ccccn2)c2c1N[C@@H](C)CS[C@@H]2c1ccc(C(N)=O)cc1C (single isomer, unassigned) [M.45, 4-(1-ethyl-7-methyl-3-(pyridin-2-yl)-4,6,7,8-tetrahydro-1H-pyrazolo[3,4-e][1,4]thiazepin-4-yl)-3-methylbenzamide] | 1000 to 10000 nM
26 | CCn1nc(-c2ccccn2)c2c1N[C@H](C)CS[C@@H]2c1ccc(C(N)=O)cc1C (single isomer, unassigned) [M.47, 4-(1-ethyl-7-methyl-3-(pyridin-2-yl)-4,6,7,8-tetrahydro-1H-pyrazolo[3,4-e][1,4]thiazepin-4-yl)-3-methylbenzamide] | 100 to 1000 nM
27 | Cc1cc(CCCO)ccc1[C@H]1SC[C@H](C)Nc2c1c(-c1ccccn1)nn2C (single isomer, unassigned) [M.49, 3-(4-(1,7-dimethyl-3-(pyridin-2-yl)-4,6,7,8-tetrahydro-1H-pyrazolo[3,4-e][1,4]thiazepin-4-yl)-3-methylphenyl)propan-1-ol] | 1000 to 10000 nM
28 | Cc1cc(CCCO)ccc1[C@H]1SC[C@@H](C)Nc2c1c(-c1ccccn1)nn2C (single isomer, unassigned) [M.50, 3-(4-(1,7-dimethyl-3-(pyridin-2-yl)-4,6,7,8-tetrahydro-1H-pyrazolo[3,4-e][1,4]thiazepin-4-yl)-3-methylphenyl)propan-1-ol] | 1000 to 10000 nM
29 | Cc1cc(C#CCCO)ccc1[C@H]1SC[C@H](C)Nc2c1c(-c1ccccn1)nn2C (single isomer, unassigned) [M.53, 4-(4-(1,7-dimethyl-3-(pyridin-2-yl)-4,6,7,8-tetrahydro-1H-pyrazolo[3,4-e][1,4]thiazepin-4-yl)-3-methylphenyl)but-3-yn-1-ol] | 100 to 1000 nM
30 | Cc1cc(C#CCCO)ccc1[C@H]1SC[C@@H](C)Nc2c1c(-c1ccccn1)nn2C (single isomer, unassigned) [M.56, 4-(4-(1,7-dimethyl-3-(pyridin-2-yl)-4,6,7,8-tetrahydro-1H-pyrazolo[3,4-e][1,4]thiazepin-4-yl)-3-methylphenyl)but-3-yn-1-ol] | 100 to 1000 nM
31 | Cc1cc(C(=O)Nc2cccnc2C)ccc1[C@H]1SC[C@H](C)Nc2c1c(-c1ccncn1)nn2C (single isomer, unassigned) [M.59, 4-(1,7-dimethyl-3-(pyrimidin-4-yl)-4,6,7,8-tetrahydro-1H-pyrazolo[3,4-e][1,4]thiazepin-4-yl)-3-methyl-N-(2-methylpyridin-3-yl)benzamide] | 1000 to 10000 nM
32 | Cc1cc(C(=O)Nc2cccnc2C)ccc1[C@H]1SC[C@@H](C)Nc2c1c(-c1ccncn1)nn2C (single isomer, unassigned) [M.60, 4-(1,7-dimethyl-3-(pyrimidin-4-yl)-4,6,7,8-tetrahydro-1H-pyrazolo[3,4-e][1,4]thiazepin-4-yl)-3-methyl-N-(2-methylpyridin-3-yl)benzamide] | 1000 to 10000 nM
